According to patent US11845763B2, “Tricarbonyl complexes of transition metals with benzo-heterocyclic derivatives of the cyclopentadienyl anion” (National Centre For Scientific Research “Demokritos”, priority 2018, dated 2023):
Where two headings read alike, the source gives them in different places.

Columns and labels:
[1] = cited from earlier work
[2] = molecular target: Aβ aggregates; details: literature value [45]; read-out: binding affinity to Aβ aggregates (Ki); cited from earlier work
[3] = molecular target: Aβ42 fibrillar aggregates (Homo sapiens, UniProt P05067); assay: Competitive binding assay using Aβ42 fibrillar aggregates; details: homologous competition, Re complex vs corresponding 99mTc complex, 50 nM Aβ42 fibrillar aggregates, 3 h room temperature
Chain of Aβ42 fibrillar aggregates (P05067 672-713 limits assumed): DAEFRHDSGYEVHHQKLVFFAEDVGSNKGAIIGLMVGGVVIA
Description: Competitive binding assay studies were performed in 1 mL solutions in PBS in 12 mm×75 mm borosilicate glass tubes according to a published procedure with modifications. […] The solutions were incubated for 3 h at room temperature and the bound and free radioactivity were separated by Millex-GV Syringe Filter Unit, 0.22 μm filters followed by 2×2 mL washes with PBS at room temperature. Filters containing the bound ^99mTc complexes were measured for radioactivity in a γ-counter. Binding studies were repeated in triplicate. The data were analyzed using GraphPad Prism software with the IC50 value calculated using a one-site competitive binding […] regression. The Ki value was calculated using the Cheng-Prousoff equation [44]: […]
In the case of homologous competitive binding we assume that the hot and cold ligand have identical affinities so that Kd and Ki have the same value. Thus the above equation is being transformed into: Ki=IC50−[Radioligand]

[4] = Stability of 99mTc complexes under excess histidine or cysteine (HPLC); assay type: physicochemical; details: percentage of intact complex by HPLC, PBS pH 7.4, 37° C.; for Stability, Cysteine, 1 h / Stability, Cysteine, 3 h / Stability, Cysteine, 6 h: excess cysteine; for Stability, Histidine, 1 h / Stability, Histidine, 3 h / Stability, Histidine, 6 h: excess histidine
Description: The stability of ^99mTc-2-^99mTc-4 complexes was assessed in the presence of excess histidine and cysteine which are capable of acting as tridentate substituents replacing the ligands of the complexes. Each of the HPLC-purified ^99mTc complex (0.5 mL, approx. 10 MBq) was mixed with a solution of histidine or cysteine (2 mM) in 0.1 M PBS, pH 7.4 (0.5 mL). The mixture was incubated at 37° C. and analyzed by HPLC after 1, 3, and 6 h. The recording of the percentage of the intact complexes in the presence of the antagonists at each time point of the study allows the estimation of the stability of the labeled ^99mTc complexes.

[5] = Lipophilicity, partition coefficient n-octanol/PBS; assay type: physicochemical
Description: The lipophilicity of ^99mTc-2-^99mTc-4 complexes was determined by the estimation of the partition coefficient in a biphasic system of n-octanol and water (PBS). The partition coefficient was expressed as the logarithm of the ratio of the counts per gram from n-octanol versus those from PBS (log Poct/water), where P is the ratio. The measurement was done in triplicate and repeated three times.

[6] = Blood-brain barrier permeability by biodistribution studies in mice; assay type: in vivo, Swiss Albino mice; details: for Biodistribution of radioactivity, Blood / Biodistribution of radioactivity, Brain / Biodistribution of radioactivity, Heart / Biodistribution of radioactivity, Intestines / Biodistribution of radioactivity, Kidneys / Biodistribution of radioactivity, Liver / Biodistribution of radioactivity, Lungs / Biodistribution of radioactivity, Muscle / Biodistribution of radioactivity, Pancreas / Biodistribution of radioactivity, Spleen / Biodistribution of radioactivity, Stomach: tail vein injection, healthy Swiss Albino mice; for percentage of radioactivity in the brain: 2 min, Swiss Albino mice
Description: This evaluation was conducted through biodistribution studies in healthy Swiss Albino mice (5 weeks old, 20-30 g) that were obtained from the breeding facilities of the Institute of Biosciences & Applications, NCSR “Demokritos”. During these experiments we evaluate the distribution of radioactivity in the tissues of the animal after radiolabeled compound administration. For the credibility of the in vivo distribution data, three independent experiments are required for each evaluation, where in each experiment the animal population ranges between 9 and 12. The experiments of synthesis, labelling and biodistribution were carried out in the Laboratory of “Radiopharmaceuticals”, NCSR “Demokritos” that has the required infrastructure to ensure safe conduct of experiments using radioactivity. All the biodistribution studies were carried out in compliance with the Presidential Decree 56/2013 (published in the Official Government Gazette of Greece 106 A/30-4-2013) that has transposed the EU Directive 2010/63 on the protection of animals used for scientific purposes.
Three groups of mice (three animals per group) were injected in the tail vein with HPLC-purified ^99mTc complexes (1-2 μCi in 0.1 mL, ethanol/saline 1:9). The mice were sacrificed at various time points (2, 15, 90 min) post injection (p.i.). The organs of interest were excised, weighed, and the radioactivity counted in an automatic γ-counter. The stomach and intestines were not emptied of food contents prior to radioactivity measurements. The calculation for blood and muscle was based upon measured activity, sample weight, and body composition data, considering that blood comprises 7% and muscle 43% of body weight. The percentage of injected dose per organ (% ID/organ) was calculated by comparison of sample radioactivity to standard solutions that contained 10% of the injected dose. The percentage of injected dose per gram (% ID/g) was calculated by dividing the % ID/organ by the weight of the organ or tissue.
where cpm reference=(cpm 10% standard×10)−cpm tail.

[7] = Brain uptake of literature 99mTc agents (cited); assay type: in vivo; details: 2 min post administration, converted from % ID/organ

SMILES: C/C(=N\[O-])[C@@H](C)[N-]CC(C)(C)C[N-][C@H](C)/C(C)=N/O.[O]=[99Tc+3] (racemic) [^99mTc-HMPAO, 99mTc-hexamethylpropyleneamineoxime]
- brain penetration ([1]; 60 min post administration [39]): 5 % ID/gr

SMILES: CN(C)c1ccc(-c2cn3cc(I)ccc3n2)cc1 [[^123I]IMPY]
- Ki [2]: 12.5 ± 2.8 nM

SMILES: [99Tc+].[C-]#[O+].[C-]#[O+].[C-]#[O+].c1ccc2[nH]c(-[c-]3cccc3)nc2c1 [^99mTc-3]
- Ki [3]: 7.04 ± 2.85 nM
- Stability, Cysteine, 1 h [4]: 98 ± 1
- Stability, Cysteine, 3 h [4]: 98 ± 1
- Stability, Cysteine, 6 h [4]: 97 ± 2
- Stability, Histidine, 1 h [4]: 98 ± 1
- Stability, Histidine, 3 h [4]: 98 ± 1
- Stability, Histidine, 6 h [4]: 97 ± 1
- Lipophilicity logPoct/water [5]: 1.84 ± 0.17
- Biodistribution of radioactivity, Blood ([6]; 2 min p.i.): 3.38 ± 0.67 % ID/gr
- Biodistribution of radioactivity, Blood ([6]; 15 min p.i.): 1.86 ± 0.13 % ID/gr
- Biodistribution of radioactivity, Blood ([6]; 90 min p.i.): 0.48 ± 0.12 % ID/gr
- percentage of radioactivity in the brain [6]: 3.99±0.60 % ID/g
- Biodistribution of radioactivity, Brain ([6]; 2 min p.i.): 3.99 ± 0.60 % ID/gr
- Biodistribution of radioactivity, Brain ([6]; 15 min p.i.): 0.75 ± 0.11 % ID/gr
- Biodistribution of radioactivity, Brain ([6]; 90 min p.i.): 0.04 ± 0.01 % ID/gr
- Biodistribution of radioactivity, Heart ([6]; 2 min p.i.): 7.53 ± 1.28 % ID/gr
- Biodistribution of radioactivity, Heart ([6]; 15 min p.i.): 1.95 ± 0.26 % ID/gr
- Biodistribution of radioactivity, Heart ([6]; 90 min p.i.): 0.22 ± 0.05 % ID/gr
- Biodistribution of radioactivity, Intestines ([6]; 2 min p.i.): 3.06 ± 0.08 % ID/gr
- Biodistribution of radioactivity, Intestines ([6]; 15 min p.i.): 14.80 ± 0.25 % ID/gr
- Biodistribution of radioactivity, Intestines ([6]; 90 min p.i.): 23.94 ± 4.27 % ID/gr
- Biodistribution of radioactivity, Kidneys ([6]; 2 min p.i.): 9.70 ± 0.92 % ID/gr
- Biodistribution of radioactivity, Kidneys ([6]; 15 min p.i.): 5.04 ± 0.53 % ID/gr
- Biodistribution of radioactivity, Kidneys ([6]; 90 min p.i.): 1.57 ± 0.20 % ID/gr
- Biodistribution of radioactivity, Liver ([6]; 2 min p.i.): 13.97 ± 2.13 % ID/gr
- Biodistribution of radioactivity, Liver ([6]; 15 min p.i.): 30.66 ± 3.96 % ID/gr
- Biodistribution of radioactivity, Liver ([6]; 90 min p.i.): 18.08 ± 1.34 % ID/gr
- Biodistribution of radioactivity, Lungs ([6]; 2 min p.i.): 7.09 ± 0.38 % ID/gr
- Biodistribution of radioactivity, Lungs ([6]; 15 min p.i.): 2.44 ± 0.39 % ID/gr
- Biodistribution of radioactivity, Lungs ([6]; 90 min p.i.): 0.45 ± 0.13 % ID/gr
- Biodistribution of radioactivity, Muscle ([6]; 2 min p.i.): 5.23 ± 0.79 % ID/gr
- Biodistribution of radioactivity, Muscle ([6]; 15 min p.i.): 1.50 ± 0.19 % ID/gr
- Biodistribution of radioactivity, Muscle ([6]; 90 min p.i.): 0.15 ± 0.03 % ID/gr
- Biodistribution of radioactivity, Pancreas ([6]; 2 min p.i.): 5.99 ± 0.62 % ID/gr
- Biodistribution of radioactivity, Pancreas ([6]; 15 min p.i.): 1.96 ± 0.25 % ID/gr
- Biodistribution of radioactivity, Pancreas ([6]; 90 min p.i.): 0.21 ± 0.02 % ID/gr
- Biodistribution of radioactivity, Spleen ([6]; 2 min p.i.): 2.63 ± 0.40 % ID/gr
- Biodistribution of radioactivity, Spleen ([6]; 15 min p.i.): 1.01 ± 0.09 % ID/gr
- Biodistribution of radioactivity, Spleen ([6]; 90 min p.i.): 0.17 ± 0.03 % ID/gr
- Biodistribution of radioactivity, Stomach ([6]; 2 min p.i.): 1.63 ± 0.44 % ID/gr
- Biodistribution of radioactivity, Stomach ([6]; 15 min p.i.): 3.17 ± 0.43 % ID/gr
- Biodistribution of radioactivity, Stomach ([6]; 90 min p.i.): 4.63 ± 0.56 % ID/gr

SMILES: Cn1c(-[c-]2cccc2)nc2ccccc21.[99Tc+].[C-]#[O+].[C-]#[O+].[C-]#[O+] [^99mTc-4]
- Ki [3]: 5.74 ± 2.9 nM
- Stability, Cysteine, 1 h [4]: 98 ± 1
- Stability, Cysteine, 3 h [4]: 95 ± 2
- Stability, Cysteine, 6 h [4]: 85 ± 1
- Stability, Histidine, 1 h [4]: 98 ± 1
- Stability, Histidine, 3 h [4]: 96 ± 1
- Stability, Histidine, 6 h [4]: 95 ± 1
- Lipophilicity logPoct/water [5]: 1.50 ± 0.12
- percentage of radioactivity in the brain [6]: 6.14±1.00 % ID/g

SMILES: CCOC(=O)[C@H](C[S-])[N-]CCN[C@@H](C[S-])C(=O)OCC.[O-2].[Tc] [^99mTc-ECD, 99mTc-labelled ethylene dicysteine diethyl ester]
- brain penetration [7]: approximately 4.4 % ID/gr
- brain penetration ([1]; 2 min post administration [40]): 1.32 % ID/organ
